# Measurements as given in article PMC9663578, “A fluorogenic probe for predicting treatment response in non-small cell lung cancer with EGFR-activating mutations” (Nature Communications, 2022).
# Values joined by “and” are separate entries in the source; they are usually repeats but may differ in a detail not shown here. Identical values can stand only once.
# Legend:
# EGFR T790M = target: T1, EGFR T790M (Homo sapiens, UniProt P00533, T790M); assay: Kinase inhibition assay (fluorescent mobility-shift assay); assay type: biochemical; set-up: Kinase activity: unit not given here; conditions: for Kinase activity: T790M, n=1-3;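 for decrease of inhibition toward T790M compared to 19del: Cell-free assay with recombinant human EGFR T790M enzyme, compound preincubated with the kinase at room temperature before the reaction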;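 for decrease of inhibition toward T790M compared to L858R: Cell-free assay with recombinant human EGFR T790M enzyme, compound preincubated with the kinase at room temperature before the reaction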
# T1 construct: EGFR T790M (amino acids 668–1210, #PR8052A); purchased Thermo Fisher PR8052A
# T1 sequence (P00533 668-1210 T790M): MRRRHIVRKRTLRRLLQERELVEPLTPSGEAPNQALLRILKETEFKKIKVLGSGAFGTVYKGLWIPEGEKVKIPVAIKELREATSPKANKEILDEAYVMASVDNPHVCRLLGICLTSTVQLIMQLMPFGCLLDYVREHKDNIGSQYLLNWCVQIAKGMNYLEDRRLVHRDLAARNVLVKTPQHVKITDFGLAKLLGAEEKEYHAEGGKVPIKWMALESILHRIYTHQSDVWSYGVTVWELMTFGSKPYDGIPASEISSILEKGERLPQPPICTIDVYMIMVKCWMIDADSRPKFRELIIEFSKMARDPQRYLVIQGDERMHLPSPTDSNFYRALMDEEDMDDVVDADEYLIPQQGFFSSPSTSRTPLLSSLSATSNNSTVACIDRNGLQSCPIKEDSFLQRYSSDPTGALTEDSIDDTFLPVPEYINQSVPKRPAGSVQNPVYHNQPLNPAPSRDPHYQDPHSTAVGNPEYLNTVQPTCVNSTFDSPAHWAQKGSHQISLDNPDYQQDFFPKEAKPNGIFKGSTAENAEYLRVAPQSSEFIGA
# MTT cytotoxicity assay = assay type: cell-based; conditions: human, A431 cells, EGFR wild-type, n=3
# EGFR wild-type = target: T2, EGFR wild-type (Homo sapiens, UniProt P00533); assay: Fluorescence turn-on response / titration of HX103 with recombinant EGFR;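 for Fluorescence intensity at 570 nm: 100% is HX103 fluorescence with wild-type EGFR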; assay type: binding; conditions: for Fluorescence intensity at 570 nm / Fluorescence response of HX103 to EGFR wild-type: n=1-3; for Fluorescence intensity, Wild-type: Fig. 2c; for Fluorescence response of HX103 to EGFR wild-type: Supplementary Fig. 2f
# T2 construct: Recombinant human EGFR (amino acids 668–1210, #PR7295B); purchased Thermo Fisher PR7295B
# T2 sequence (P00533 668-1210): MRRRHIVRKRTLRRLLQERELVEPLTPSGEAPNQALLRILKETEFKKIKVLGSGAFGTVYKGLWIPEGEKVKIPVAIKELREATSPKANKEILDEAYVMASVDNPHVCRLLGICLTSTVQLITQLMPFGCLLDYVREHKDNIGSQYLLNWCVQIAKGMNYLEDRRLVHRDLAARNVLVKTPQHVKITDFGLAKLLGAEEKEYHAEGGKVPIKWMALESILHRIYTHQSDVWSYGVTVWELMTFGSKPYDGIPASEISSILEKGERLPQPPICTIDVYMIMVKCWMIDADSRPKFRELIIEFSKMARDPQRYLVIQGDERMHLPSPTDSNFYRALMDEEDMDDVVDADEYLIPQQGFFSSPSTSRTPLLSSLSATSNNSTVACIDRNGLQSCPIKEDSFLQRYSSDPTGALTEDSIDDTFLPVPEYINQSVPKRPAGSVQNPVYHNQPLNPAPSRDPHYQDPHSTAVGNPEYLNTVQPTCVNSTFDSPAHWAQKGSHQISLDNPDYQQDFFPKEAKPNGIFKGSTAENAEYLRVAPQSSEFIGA
# Procedure: (d) Fluorescence spectra change of HX103 (5 µ M) with increasing concentration of EGFR L858R
# (e) Fluorescence spectra change of HX103 (5 µ M ) with
# increasing concentration of EGFR 19del (0 to 6 µM) in PBS buffer. (f) Titration curve of HX103
# (5 µM) with increasing concentration of EGFRs (0 to 6 µM). The apparent binding affinity (Kd)
# The fluorescence titration curve was fitted on one -
# site specific binding model. I and I0 represent the intensities of HX103 at 570 nm in the presence
# and absence of protein. Data represent average val ues ± SD, n = 3 independent experiments per
# dissolved in dimethyl sulfoxide (DMSO) to obtain stock solutions (10 mM). The prepared stock
# solution was diluted in sodium phosphate buffer (PBS, 1 M, pH=7.4) to obtain the desired final
# concentration solution, containing 0.1% (v/v) DMSO as a cosolvent.
# and emission fluorescence spectra of the solution before/after addition o f different concentration
# Data analysis：The obtained fluorescence intensity at 570 nm (Excitation wavelength was 440
# nm) in each sample was normalized by using the fluorescence intensity of HX103 in the presence
# of EGFR. Specifically, the fluorescence intensity of HX103 in the presence of EGFR wild-type
# was set at 100% to normalized that of the remaining samples.
# MCF-7 cells = assay: FACS assay in cultured cells
# Procedure: The FACS assay was performed according to the reported literatures[67],[68]. Briefly, the cultured cells were seeded on the petri dish and counted using Count star BioMed automated cell counter. Around 10^6 live-cells were collected and were pelleted (2000×g, 3 min), followed by washing with PBS (2x). Cells were then resuspended in PBS buffer containing 0.1% BSA (1 × 10^6 cells/mL). […] The cell suspension was resuspended in PBS and analyzed with a FACSVerse^TM flow cytometer (BD Biosciences, LSRFortessa). About 10,000 events per tube were analyzed and the mean fluorescence intensity was detected and analyzed.
# (§1) For the FACS assay with EGFR antibody, around 10^6 live-cells were collected and washed with PBS (2x). The cells were fixed by 400 µL 4% paraformaldehyde for 15 min at room temperature, followed by permeabilization with 0.1% Triton X-100 for 10 min and blocking with 5% BSA for 30 min. […] The cells were then washed with 0.5% BSA/PBS (3x) and resuspended in 400 µL of 0.1% BSA/PBS. […] The resuspended cell suspension was then analyzed on a FACSVerseTM flow cytometer (BD Biosciences, LSRFortessa). Nonspecific fluorescence binding was omitted by Rabbit mAb IgG isotype control (#3900, CST, 1:100) and the corresponding mean fluorescence was subtracted from the signal measured with each primary antibody. About 10,000 events per tube were analyzed and the mean fluorescence intensity was detected and analyzed.
# (§2) Subsequently, the treated cells were incubated for 30 min at 37 °C, followed by washing with PBS buffer three times. […] Finally, the co-stained cells were washed with 0.5% BSA/PBS for three times and resuspended in 400 µL of 0.1% BSA/PBS. The obtained cell suspension was ready for analysis. Nonspecific fluorescence binding was omitted by Rabbit mAb IgG isotype control (#3900, CST, 1:100) as described above.
# (§3) Nonspecific fluorescence binding was omitted by Rabbit mAb IgG isotype control (#3900, CST, 1:100). […] After incubation for another 30 min at room temperature, the co-stained cells were washed with 0.5% BSA/PBS for three times and resuspended in 400 µL of 0.1% BSA/PBS. The obtained cell suspension was ready for analysis. Nonspecific fluorescence binding was omitted by Rabbit mAb IgG isotype control (#3900, CST, 1:100) as described above.
# (§4) The cells were seeded on the petri dish and cultured at the normal condition with 10% FBS, and that was changed to serum-free condition for 24 h when the cells proliferated at ~80% confluence. […] Nonspecific fluorescence binding was omitted by Rabbit mAb IgG isotype control (#3900, CST, 1:100) as described above.
# EGFR 19del = target: T3, EGFR 19del (Homo sapiens, UniProt P00533, DEL746-750); assay: Kinase inhibition assay (fluorescent mobility-shift assay); assay type: biochemical; set-up: Kinase activity: unit not given here; conditions: for Kinase activity: 19del, n=1-3;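 for decrease of inhibition toward T790M compared to 19del: Cell-free assay with recombinant human EGFR T790M enzyme, compound preincubated with the kinase at room temperature before the reaction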;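 for decrease of inhibition toward T790M compared to L858R: Cell-free assay with recombinant human EGFR T790M enzyme, compound preincubated with the kinase at room temperature before the reaction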
# T3 construct: purchased Thermo Fisher PV6179
# T3 sequence (P00533 with tags, fused parts or gaps DEL746-750): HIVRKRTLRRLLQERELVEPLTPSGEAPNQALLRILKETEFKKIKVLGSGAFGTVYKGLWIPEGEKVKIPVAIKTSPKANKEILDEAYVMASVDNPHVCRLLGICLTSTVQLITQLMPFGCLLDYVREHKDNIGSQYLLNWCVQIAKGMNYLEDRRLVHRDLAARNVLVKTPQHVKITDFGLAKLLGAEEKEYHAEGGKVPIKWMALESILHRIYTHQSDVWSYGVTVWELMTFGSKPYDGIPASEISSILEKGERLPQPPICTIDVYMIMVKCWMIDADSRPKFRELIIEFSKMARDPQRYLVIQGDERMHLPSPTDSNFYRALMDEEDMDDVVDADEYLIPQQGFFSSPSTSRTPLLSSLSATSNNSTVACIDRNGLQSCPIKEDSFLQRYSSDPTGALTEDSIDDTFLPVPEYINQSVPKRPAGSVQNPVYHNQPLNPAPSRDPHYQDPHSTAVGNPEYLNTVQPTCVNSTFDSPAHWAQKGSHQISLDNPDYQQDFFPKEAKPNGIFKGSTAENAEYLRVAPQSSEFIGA
# A431 cells = assay: FACS assay in cultured cells; conditions: A431
# Procedure: Briefly, the cultured cells were seeded on the petri dish and counted using Count star BioMed automated cell counter. Around 10^6 live-cells were collected and were pelleted (2000×g, 3 min), followed by washing with PBS (2x). Cells were then resuspended in PBS buffer containing 0.1% BSA (1 × 10^6 cells/mL). […] The cell suspension was resuspended in PBS and analyzed with a FACSVerse^TM flow cytometer (BD Biosciences, LSRFortessa). About 10,000 events per tube were analyzed and the mean fluorescence intensity was detected and analyzed.
# as §1, §2, §3, §4
smiles,measurement,setting,value
COc1cc2c(Nc3ccc(F)c(Cl)c3)ncnc2cc1OCCCNc1ccc(S(=O)(=O)N(C)C)c2nonc12 [HX103],decrease of inhibition toward T790M compared to 19del,EGFR T790M; IC50 T790M vs 19del,~ 750 fold
same,decrease of inhibition toward T790M compared to L858R,EGFR T790M; IC50 T790M vs L858R,~ 650 fold
same,Kinase activity,EGFR T790M; Log [HX103 (M)] -4.5,14.55 and 14.95 and 12.5
same,Kinase activity,EGFR T790M; Log [HX103 (M)] -5,16 and 19.07 and 16.33
same,Kinase activity,EGFR T790M; Log [HX103 (M)] -5.5,24.68 and 25.89 and 23.04
same,Kinase activity,EGFR T790M; Log [HX103 (M)] -6,50.45 and 49.72 and 50.33
same,Kinase activity,EGFR T790M; Log [HX103 (M)] -6.5,74.42 and 70.48 and 67.65
same,Kinase activity,EGFR T790M; Log [HX103 (M)] -7,85.94 and 86.13 and 86.01
same,Kinase activity,EGFR T790M; Log [HX103 (M)] -7.5,96.44 and 90.88 and 91.86
same,Kinase activity,EGFR T790M; Log [HX103 (M)] -8,104.4 and 100.7 and 101.1
same,Kinase activity,EGFR T790M; Log [HX103 (M)] -8.5,97.33 and 103.4 and 97.96
same,Kinase activity,EGFR T790M; Log [HX103 (M)] -9,98.09 and 98.85 and 98.65
same,IC50,EGFR T790M; n = 3,977 nM
same,IC50 at 48 h,MTT cytotoxicity assay,26000 nM
same,Fluorescence intensity at 570 nm,"EGFR wild-type; Fig. 2b, EGFR+Afa.+HX103",40.8352 and 40.5015 and 39.6477
same,Fluorescence intensity at 570 nm,"EGFR wild-type; Fig. 2b, EGFR+Compound 4+HX103",34.8404 and 34.012 and 33.2139
same,Fluorescence intensity at 570 nm,"EGFR wild-type; Fig. 2b, EGFR+Gef.+HX103",52.1782 and 56.1359 and 43.6715
same,Fluorescence intensity at 570 nm,"EGFR wild-type; Fig. 2b, EGFR+HX103",102.993 and 106.909 and 90.0974
same,"Fluorescence intensity, Wild-type",EGFR wild-type; wavelength 666 nm,3857.08
same,"Fluorescence intensity, Wild-type",EGFR wild-type; wavelength 669 nm,3668.59
same,"Fluorescence intensity, Wild-type",EGFR wild-type; wavelength 671 nm,3481.17
same,"Fluorescence intensity, Wild-type",EGFR wild-type; wavelength 673 nm,3297.98
same,"Fluorescence intensity, Wild-type",EGFR wild-type; wavelength 676 nm,3120.62
same,"Fluorescence intensity, Wild-type",EGFR wild-type; wavelength 678 nm,2950.6
same,"Fluorescence intensity, Wild-type",EGFR wild-type; wavelength 681 nm,2789.44
same,"Fluorescence intensity, Wild-type",EGFR wild-type; wavelength 683 nm,2638.8
same,"Fluorescence intensity, Wild-type",EGFR wild-type; wavelength 686 nm,2500.58
same,"Fluorescence intensity, Wild-type",EGFR wild-type; wavelength 688 nm,2376.72
same,"Fluorescence intensity, Wild-type",EGFR wild-type; wavelength 690 nm,2269.12
same,"Fluorescence intensity, Wild-type",EGFR wild-type; wavelength 693 nm,2178.16
same,"Fluorescence intensity, Wild-type",EGFR wild-type; wavelength 695 nm,2100.14
same,"Fluorescence intensity, Wild-type",EGFR wild-type; wavelength 698 nm,2030.74
same,"Fluorescence intensity, Wild-type",EGFR wild-type; wavelength 700 nm,1965.66
same,Fluorescence intensity at 570 nm,"EGFR wild-type; Fig. 2d, HX103 with EGFR WT",95.7649 and 96.5955 and 107.639
same,fluorescence turn-on response,"EGFR wild-type; HX103 5 µM in PBS buffer (0.1% DMSO), 570 nm",high fluorescence
same,Kd,"EGFR wild-type; HX103 5 µM, EGFR 0 to 6 µM in PBS, one-site specific binding model, read-out: apparent binding affinity (Kd)",2700 ± 400 nM
same,Fluorescence response of HX103 to EGFR wild-type,EGFR wild-type; EGFR 0.1 µM,1.163 and 1.321 and 1.006
same,Fluorescence response of HX103 to EGFR wild-type,EGFR wild-type; EGFR 0.5 µM,2.913 and 3.724 and 2.102
same,Fluorescence response of HX103 to EGFR wild-type,EGFR wild-type; EGFR 5 µM,10.0441 and 11.0703 and 9.62
same,Fluorescence response of HX103 to EGFR wild-type,EGFR wild-type; EGFR 6 µM,11.047 and 11.7068 and 10.3878
same,normalized MFI of HX103 labeling,"MCF-7 cells; HX103 5 µM, 30 min, replicates n=1-3",25.1073% and 53.6481% and 30.8069%
same,EGFR(+) HX103 (+) (%),"MCF-7 cells; HX103 5 µM, replicates n=1-3",0.04% and 0.02% and 0.09%
same,EGFR(+) HX103 (+) (%) AVE,"MCF-7 cells; MCF-7, AVE of n=3",0.05%
same,HX103 (+) (%) AVE,"MCF-7 cells; MCF-7, AVE of n=3",0.5297%
same,EGFR(+) HX103 (+) (%),"MCF-7 cells; MCF-7, replicates n=1-3",0.09% and 0.04% and 0.02%
same,HX103(+) (%),"MCF-7 cells; MCF-7, replicates n=1-3",-0.051% and 1.21% and 0.43%
same,Kinase activity,EGFR 19del; Log [HX103 (M)] -7.5,4.826 and 8.074 and 4.95
same,Kinase activity,EGFR 19del; Log [HX103 (M)] -8,14.14 and 14.3 and 14.2
same,Kinase activity,EGFR 19del; Log [HX103 (M)] -8.5,33.15 and 25.38 and 27.26
same,Kinase activity,EGFR 19del; Log [HX103 (M)] -9,51.95 and 59.57 and 58.76
same,IC50,EGFR 19del; n = 3,1.3 nM
same,EGFR(+) HX103 (+) (%) AVE,A431 cells; AVE of n=3,62.105%
same,HX103 (+) (%) AVE,A431 cells; AVE of n=3,75.74%
same,HX103 dose-dependent signal (Supplementary Fig. 18),"A431 cells; HX103 0.37 µM, 20 µM = 100",15.6053 and 17.5852 and 16.5942
